Test results: US6747044B2, “Neurokinin antagonists” (Boehringer Ingelheim Pharma KG, priority 2000, dated 2004)

Target: T1, NK1 receptor (Cavia porcellus, UniProt P30547)
T1 construct: Guinea pigs (300-500 g) were anaesthetised with pentobarbital (50 mg/kg i.p.); from tissue; host or cells: whole anaesthetised guinea pig (in vivo)
Assay: Inhibition of NK1-induced fall in blood pressure in anaesthetised guinea pigs (duration of activity)
Assay type: in vivo, guinea pig
Conditions: test substance intraduodenal, NK1-agonist 0.2 μmol/kg i.v. every 30 min for 6 to 8 hours
Protocol: Determining the Duration of Activity
Inhibition of NK1-induced Fall in Blood Pressure in Anaesthetised Guinea Pigs
Guinea pigs (300-500 g) were anaesthetised with pentobarbital (50 mg/kg i.p.) and prepared for duodenal administration of the test substances and for measurement of the arterial blood pressure. A temporary drop in blood pressure was induced by the intravenous administration of an NK1-agonist (0.2 μmol/kg at 30 minute intervals). After the basal value of the blood pressure had been determined the test substances were administered by intraduodenal route. Then the NK1-agonist was administered intravenously every 30 min for 6 to 8 hours. The results were expressed as a percentage inhibition in the NK1-induced fall in blood pressure and the ED50 values were calculated by regression analysis.

T1 sequence (P30547 whole entry): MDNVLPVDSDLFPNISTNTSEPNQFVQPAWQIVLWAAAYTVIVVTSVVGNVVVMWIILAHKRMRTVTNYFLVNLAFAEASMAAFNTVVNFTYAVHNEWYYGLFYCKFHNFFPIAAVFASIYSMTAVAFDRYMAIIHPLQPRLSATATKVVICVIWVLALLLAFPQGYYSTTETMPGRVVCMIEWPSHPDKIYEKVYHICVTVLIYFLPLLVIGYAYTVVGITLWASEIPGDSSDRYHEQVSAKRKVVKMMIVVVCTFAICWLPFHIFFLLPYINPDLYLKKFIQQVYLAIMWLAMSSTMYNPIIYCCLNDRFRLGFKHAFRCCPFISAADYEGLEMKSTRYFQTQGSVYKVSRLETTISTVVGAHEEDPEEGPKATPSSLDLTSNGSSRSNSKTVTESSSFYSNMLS

Structure (SMILES) | Duration of activity
CN(CCc1cc(C(F)(F)F)cc(C(F)(F)F)c1)C(=O)C(c1ccccc1)N1CCC(N(C)CC2CC2)CC1 (stereo not shown) [Example 3, N-[2-(3,5-bis-trifluoromethyl-phenyl)-ethyl]-2-[4-(cyclopropylmethyl-methyl-amino)-piperidin-1-yl]-N-methyl-2-phenyl-acetamide] | >360 min
CN(CCc1cc(C(F)(F)F)cc(C(F)(F)F)c1)C(=O)C(c1ccccc1)N1CCC(NC(CO)CO)CC1 (stereo not shown) [Example 2, N-[2-(3,5-bis-trifluoromethyl-phenyl)-ethyl]-2-[4-(2-hydroxy-1-hydroxymethyl-ethylamino)-piperidin-1-yl]-N-methyl-2-phenylacetamide] | >360 min
CN(CCc1cc(C(F)(F)F)cc(C(F)(F)F)c1)C(=O)[C@H](c1ccccc1)N1CCC(N(C)CCO)CC1 [Example B-1, reference compound] | 120 min
CN(CCc1cc(C(F)(F)F)cc(C(F)(F)F)c1)C(=O)C(c1ccccc1)N1CCC(N(C)CCCO)CC1 (stereo not shown) [Example 1, N-[2-(3,5-Bis-trifluoromethyl-phenyl)-ethyl]-2-{4-[(3-hydroxy-propyl)-methyl-amino]-piperidine-1-yl}-N-methyl-2-phenyl-acetamide] | >360 min
CN(CCc1cc(C(F)(F)F)cc(C(F)(F)F)c1)C(=O)[C@H](c1ccccc1)N1CCC(N(CCCO)CC2CC2)CC1 [Example 5, (S)—N-[2-(3.5-bis-trifluoromethyl-phenyl)-ethyl]-2-{4-[cyclopropylmethyl-(3-hydroxy-propyl)-amino]-piperidin-1-yl}-N-methyl-2-phenyl-acetamide] | >360 min
CN(CCc1cc(C(F)(F)F)cc(C(F)(F)F)c1)C(=O)C(c1ccccc1)N1CCC(N(CCO)CCCO)CC1 (stereo not shown) [Example 4, N-[2-(3,5-bis-trifluoromethyl-phenyl)-ethyl]-2-{4-[(2-hydroxy-ethyl)-(3-hydroxy-propyl)-amino]-piperidin-1-yl}-N-methyl-2-phenyl-acetamide] | >360 min
CN(CCc1cc(C(F)(F)F)cc(C(F)(F)F)c1)C(=O)[C@H](c1ccccc1)N1CCC(N(CCO)CCO)CC1 [Example B-4, reference compound] | 120 min
